Earlier results in patent US20040142388A1, “Method for detecting chronic dementia diseases, and corresponding VGF peptides and detection reagents” (priority 2001, published 2004).

Test system: PC12 cell line
Conditions: rat pheochomozytome cell line (PC12), stimulation with nerve growth factor

Substance: NGF: important growth factor which regulates the differentiation of the peripheral and central nervous system
- increase in the concentration of VGF: 12- to 14 fold
